Test results taken from ChEMBL document CHEMBL1136178, “Carbonic anhydrase inhibitors: topically acting antiglaucoma sulfonamides incorporating esters and amides of 3- and 4-carboxybenzolamide” (Bioorg Med Chem Lett, 2003).

How the values were obtained:
Carbonic anhydrase 4 = target: T1, Carbonic anhydrase 4 (Bos taurus, UniProt Q95323)
T1 sequence (Q95323 whole entry): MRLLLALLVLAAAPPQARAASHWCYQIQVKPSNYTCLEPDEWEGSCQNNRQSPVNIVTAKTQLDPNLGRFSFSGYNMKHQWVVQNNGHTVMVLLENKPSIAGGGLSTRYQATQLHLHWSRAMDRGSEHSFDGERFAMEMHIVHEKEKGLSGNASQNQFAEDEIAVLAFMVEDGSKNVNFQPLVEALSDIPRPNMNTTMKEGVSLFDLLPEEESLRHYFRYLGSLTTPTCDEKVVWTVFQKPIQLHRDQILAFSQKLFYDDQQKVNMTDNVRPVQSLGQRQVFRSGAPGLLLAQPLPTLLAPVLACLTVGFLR
Description: Inhibitory activity against Carbonic anhydrase IV isolated from bovine lung

Carbonic anhydrase 1 = Carbonic anhydrase 1 (Homo sapiens, UniProt P00915)
Carbonic anhydrase 1, sequence (P00915 whole entry): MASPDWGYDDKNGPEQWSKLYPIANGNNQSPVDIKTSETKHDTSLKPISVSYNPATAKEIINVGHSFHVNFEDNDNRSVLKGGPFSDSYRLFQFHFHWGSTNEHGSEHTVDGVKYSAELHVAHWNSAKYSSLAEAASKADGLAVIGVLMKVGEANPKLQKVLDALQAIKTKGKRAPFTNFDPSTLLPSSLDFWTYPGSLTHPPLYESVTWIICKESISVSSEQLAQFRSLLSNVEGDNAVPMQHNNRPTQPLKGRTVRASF
Description: Inhibitory activity against human carbonic anhydrase I (hCA I)

Oryctolagus cuniculus [1] = species on record: Oryctolagus cuniculus
Description: Fall of intraocular pressure (IOP) after treatment with 50 ug into normotensive rabbit at time interval 60 min at a pH of 7

Carbonic anhydrase 2 = Carbonic anhydrase 2 (Homo sapiens, UniProt P00918)
Description: Inhibitory activity against human carbonic anhydrase II

Oryctolagus cuniculus [2] = species on record: Oryctolagus cuniculus; remark: listed apart in the source
Description: Fall of intraocular pressure (IOP) after treatment with 50 ug into normotensive rabbit at time interval 240 min at a pH of 7

Oryctolagus cuniculus [3] = species on record: Oryctolagus cuniculus; remark: listed apart in the source
Description: Fall of intraocular pressure (IOP) after treatment with 50 ug into normotensive rabbit at time interval 90 min at a pH of 7

Oryctolagus cuniculus [4] = species on record: Oryctolagus cuniculus; remark: listed apart in the source
Description: Fall of intraocular pressure (IOP) after treatment with 50 ug into normotensive rabbit at time interval 30 min at a pH of 7

Row | Structure (SMILES) | Ki (Carbonic anhydrase 4) | Ki (Carbonic anhydrase 1) | Delta IOP (Oryctolagus cuniculus [1]) | Ki (Carbonic anhydrase 2) | Delta IOP (Oryctolagus cuniculus [2]) | Delta IOP (Oryctolagus cuniculus [3]) | Delta IOP (Oryctolagus cuniculus [4])
1 | CN(C)CCOC(=O)c1cccc(S(=O)(=O)Nc2nnc(S(N)(=O)=O)s2)c1 | 7 nM | 15 nM | 4.9 mmHg | 2.1 nM | 5.7 mmHg | 7.1 mmHg | 4.5 mmHg
2 | CCN(CC)CCNC(=O)c1cccc(S(=O)(=O)Nc2nnc(S(N)(=O)=O)s2)c1 | 7 nM | 14 nM | 6.9 mmHg | 1.7 nM | 8 mmHg | 9.1 mmHg | 6.5 mmHg
3 | CC(CN(C)C)OC(=O)c1cccc(S(=O)(=O)Nc2nnc(S(N)(=O)=O)s2)c1 (stereo unspecified) | 8 nM | 17 nM | 6.7 mmHg | 2 nM | 7.9 mmHg | 8.5 mmHg | 2.5 mmHg
5 | CCN(CC)CCNC(=O)c1cccc(S(=O)(=O)/N=c2/sc(S(N)(=O)=O)nn2C)c1 | 7 nM | 16 nM |  | 1.9 nM |  |  | 
6 | CN(C)CCOCCOC(=O)c1cccc(S(=O)(=O)/N=c2/sc(S(N)(=O)=O)nn2C)c1 | 8 nM | 15 nM |  | 2 nM |  |  | 
7 | CN(C)CCOC(=O)c1cccc(S(=O)(=O)/N=c2/sc(S(N)(=O)=O)nn2C)c1 | 10 nM | 16 nM |  | 2.9 nM |  |  | 
8 | Cn1nc(S(N)(=O)=O)s/c1=N/S(=O)(=O)c1ccc(C(=O)OCCO)cc1 | 14 nM | 20 nM |  | 4 nM |  |  | 
9 | COCCOC(=O)c1cccc(S(=O)(=O)Nc2nnc(S(N)(=O)=O)s2)c1 | 8 nM | 15 nM | 2.5 mmHg | 2.9 nM | 0 mmHg | 2 mmHg | 6 mmHg
10 | NS(=O)(=O)c1nnc(NS(=O)(=O)c2cccc(C(=O)OCCO)c2)s1 | 8 nM | 16 nM | 4.8 mmHg | 3.1 nM | 0.5 mmHg | 2.8 mmHg | 10.5 mmHg
11 | CN(C)CCOC(=O)c1ccc(S(=O)(=O)/N=c2/sc(S(N)(=O)=O)nn2C)cc1 | 14 nM | 13 nM |  | 2.4 nM |  |  | 
12 | NS(=O)(=O)c1nnc(NS(=O)(=O)c2ccc(C(=O)O)cc2)s1 | 12 nM | 45 nM |  | 4.6 nM |  |  | 
13 | CN(C)CCOCCOC(=O)c1ccc(S(=O)(=O)Nc2nnc(S(N)(=O)=O)s2)cc1 | 7 nM | 12 nM | 3.9 mmHg | 1.3 nM | 6.3 mmHg | 5.7 mmHg | 2.7 mmHg
14 | Cn1nc(S(N)(=O)=O)s/c1=N/S(=O)(=O)c1cccc(C(=O)OCCO)c1 | 10 nM | 23 nM |  | 5.2 nM |  |  | 
15 | CC(CN(C)C)OC(=O)c1ccc(S(=O)(=O)/N=c2/sc(S(N)(=O)=O)nn2C)cc1 (stereo unspecified) | 13 nM | 15 nM |  | 1.8 nM |  |  | 
16 | COCCOC(=O)c1cccc(S(=O)(=O)/N=c2/sc(S(N)(=O)=O)nn2C)c1 | 9 nM | 17 nM |  | 3.3 nM |  |  | 
17 | CN(C)CCOCCOC(=O)c1ccc(S(=O)(=O)/N=c2/sc(S(N)(=O)=O)nn2C)cc1 | 9 nM | 13 nM |  | 1.7 nM |  |  | 
18 | Cn1nc(S(N)(=O)=O)s/c1=N/S(=O)(=O)c1cccc(C(=O)O)c1 | 15 nM | 73 nM |  | 5.9 nM |  |  | 
19 | CC(CN(C)C)OC(=O)c1cccc(S(=O)(=O)/N=c2/sc(S(N)(=O)=O)nn2C)c1 (stereo unspecified) | 12 nM | 18 nM |  | 2.2 nM |  |  | 
20 | COCCOC(=O)c1ccc(S(=O)(=O)/N=c2/sc(S(N)(=O)=O)nn2C)cc1 | 12 nM | 16 nM |  | 3.1 nM |  |  | 
21 | NS(=O)(=O)c1nnc(NS(=O)(=O)c2cccc(C(=O)O)c2)s1 | 13 nM | 68 nM |  | 5.1 nM |  |  | 
22 | CC(CN(C)C)OC(=O)c1ccc(S(=O)(=O)Nc2nnc(S(N)(=O)=O)s2)cc1 (stereo unspecified) | 10 nM | 13 nM | 5.9 mmHg | 1.4 nM | 8 mmHg | 8.2 mmHg | 4.8 mmHg
23 | CN(C)CCOC(=O)c1ccc(S(=O)(=O)Nc2nnc(S(N)(=O)=O)s2)cc1 | 10 nM | 11 nM | 5.5 mmHg | 1.5 nM | 7.6 mmHg | 8 mmHg | 4.5 mmHg
24 | Cn1nc(S(N)(=O)=O)s/c1=N/S(=O)(=O)c1ccc(C(=O)O)cc1 | 14 nM | 50 nM |  | 5.4 nM |  |  | 
25 | NS(=O)(=O)c1nnc(NS(=O)(=O)c2ccc(C(=O)OCCO)cc2)s1 | 11 nM | 14 nM |  | 2.9 nM |  |  | 
26 | CN(C)CCOCCOC(=O)c1cccc(S(=O)(=O)Nc2nnc(S(N)(=O)=O)s2)c1 | 6 nM | 13 nM | 4.5 mmHg | 1.6 nM | 3.3 mmHg | 4.1 mmHg | 4.9 mmHg
27 | CCN(CC)CCNC(=O)c1ccc(S(=O)(=O)/N=c2/sc(S(N)(=O)=O)nn2C)cc1 | 8 nM | 12 nM |  | 1.7 nM |  |  | 
28 | COCCOC(=O)c1ccc(S(=O)(=O)Nc2nnc(S(N)(=O)=O)s2)cc1 | 10 nM | 12 nM |  | 2.8 nM |  |  | 
29 | NS(=O)(=O)c1nnc(NS(=O)(=O)c2ccccc2)s1 [BENZOLAMIDE] | 12 nM |  |  |  |  |  | 
30 | CC(=O)/N=c1/sc(S(N)(=O)=O)nn1C [METHAZOLAMIDE] | 145 nM |  |  |  |  |  | 
